Results published in US11963960B2 (Flash Therapeutics, LLC, priority 2020, dated 2024).

target: N-terminally GST-tagged HCK (75-526) (Homo sapiens (Human), UniProt P08631); assay: HCK Kinase Assay (ProFluor Src-Family Kinase Assay); assay type: biochemical; settings: HCK inhibitory activity, 50 μM ATP; read-out: HCK Activity
Procedure, shortened: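 ProFluor Src-family format: after the kinase reaction, protease solution was added for 60 min at room temperature (22-25° C), then stabilizer.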

Chain of N-terminally GST-tagged HCK (75-526) (P08631 75-526): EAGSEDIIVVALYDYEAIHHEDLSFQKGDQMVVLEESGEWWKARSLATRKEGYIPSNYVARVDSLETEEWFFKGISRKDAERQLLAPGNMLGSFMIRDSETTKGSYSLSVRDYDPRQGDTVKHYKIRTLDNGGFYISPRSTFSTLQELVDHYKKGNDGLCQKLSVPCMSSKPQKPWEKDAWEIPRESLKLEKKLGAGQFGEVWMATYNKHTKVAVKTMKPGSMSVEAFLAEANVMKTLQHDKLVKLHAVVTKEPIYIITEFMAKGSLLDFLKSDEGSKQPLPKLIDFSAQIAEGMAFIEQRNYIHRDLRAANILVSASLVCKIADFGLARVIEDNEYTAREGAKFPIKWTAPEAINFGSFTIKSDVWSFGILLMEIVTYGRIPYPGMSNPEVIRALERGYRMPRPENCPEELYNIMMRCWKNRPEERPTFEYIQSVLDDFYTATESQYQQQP

SMILES | IC50
CN1CCN([C@H]2CC[C@H](n3cc(-c4ccc(Oc5c(F)cccc5F)cc4)c4c(N)ncnc43)CC2)CC1 [Example 109, 5-(4-(2,6-difluorophenoxy)phenyl)-7-((trans)-4-(4-methylpiperazin-1-yl)cyclohexyl)-7H-pyrrolo[2,3-d]pyrimidin-4-amine] | < 50 nM
COc1cc(-c2nn([C@H]3CC[C@H](N4CCN(C)CC4)CC3)c3ncnc(N)c23)ccc1Oc1ccccc1 [Example 110] | < 50 nM
Cc1ccc(Oc2ccc(-c3cn([C@H]4CC[C@H](N5CCN(C)CC5)CC4)c4ncnc(N)c34)cc2)cc1 [Example 111, 7-((trans)-4-(4-methylpiperazin-1-yl)cyclohexyl)-5-(4-(p-tolyloxy)phenyl)-7H-pyrrolo[2,3-d]pyrimidin-4-amine] | 50 to 250 nM
CN1CCN([C@H]2CC[C@H](n3cc(-c4ccc(Oc5ccccc5C#N)cc4)c4c(N)ncnc43)CC2)CC1 [Example 112, 2-(4-(4-amino-7-((trans)-4-(4-methylpiperazin-1-yl)cyclohexyl)-7H-pyrrolo[2,3-d]pyrimidin-5-yl)phenoxy)benzonitrile] | < 50 nM
CN1CCN([C@H]2CC[C@H](n3cc(-c4ccc(C(=O)c5ccccc5)cc4)c4c(N)ncnc43)CC2)CC1 [Example 113, (4-(4-amino-7-((trans)-4-(4-methylpiperazin-1-yl)cyclohexyl)-7H-pyrrolo[2,3-d]pyrimidin-5-yl)phenyl)(phenyl)methanone] | < 50 nM
CN1CCN([C@H]2CC[C@H](n3cc(-c4ccc(C(O)c5ccccc5)cc4)c4c(N)ncnc43)CC2)CC1 (stereo partly drawn) [Example 114, (4-(4-amino-7-((trans)-4-(4-methylpiperazin-1-yl)cyclohexyl)-7H-pyrrolo[2,3-d]pyrimidin-5-yl)phenyl)(phenyl)methanol] | < 50 nM
CN1CCN([C@H]2CC[C@H](n3cc(-c4ccc(Cc5ccccc5)cc4)c4c(N)ncnc43)CC2)CC1 [Example 115, 5-(4-benzylphenyl)-7-((trans)-4-(4-methylpiperazin-1-yl)cyclohexyl)-7H-pyrrolo[2,3-d]pyrimidin-4-amine] | < 50 nM
CN1CCN([C@H]2CC[C@H](n3cc(-c4ccc(Oc5cccnn5)cc4)c4c(N)ncnc43)CC2)CC1 [Example 116, 7-((trans)-4-(4-methylpiperazin-1-yl)cyclohexyl)-5-(4-(pyridazin-3-yloxy)phenyl)-7H-pyrrolo[2,3-d]pyrimidin-4-amine] | < 50 nM
CCc1cc(NC(=O)Nc2ccc(-c3cn([C@H]4CC[C@H](N5CCN(C)CC5)CC4)c4ncnc(N)c34)cc2)no1 [Example 117, 1-(4-(4-amino-7-((trans)-4-(4-methylpiperazin-1-yl)cyclohexyl)-7H-pyrrolo[2,3-d]pyrimidin-5-yl)phenyl)-3-(5-ethylisoxazol-3-yl)urea] | 50 to 250 nM
CCc1cc(NC(=O)Nc2ccc(-c3cn([C@H]4CC[C@H](N5CCN(C)CC5)CC4)c4ncnc(N)c34)cc2)on1 [Example 118, 1-(4-(4-amino-7-((trans)-4-(4-methylpiperazin-1-yl)cyclohexyl)-7H-pyrrolo[2,3-d]pyrimidin-5-yl)phenyl)-3-(3-ethylisoxazol-5-yl)urea] | 50 to 250 nM
CC(C)c1cc(NC(=O)Nc2ccc(-c3cn([C@H]4CC[C@H](N5CCN(C)CC5)CC4)c4ncnc(N)c34)cc2)no1 [Example 119, 1-(4-(4-amino-7-((trans)-4-(4-methylpiperazin-1-yl)cyclohexyl)-7H-pyrrolo[2,3-d]pyrimidin-5-yl)phenyl)-3-(5-isopropylisoxazol-3-yl)urea] | < 50 nM
CN1CCN([C@H]2CC[C@H](n3cc(-c4ccc(NC(=O)Nc5cc(C(C)(C)C)on5)cc4)c4c(N)ncnc43)CC2)CC1 [Example 120, 1-(4-(4-amino-7-((trans)-4-(4-methylpiperazin-1-yl)cyclohexyl)-7H-pyrrolo[2,3-d]pyrimidin-5-yl)phenyl)-3-(5-(tert-butyl)isoxazol-3-yl)urea] | < 50 nM
COc1cc(-c2nn([C@H]3CC[C@H](N4CCN(C)CC4)CC3)c3ncnc(N)c23)ccc1NC(=O)Nc1cc(C(C)(C)C)on1 [Example 123, 1-(4-(4-amino-1-((trans)-4-(4-methylpiperazin-1-yl)cyclohexyl)-1H-pyrazolo[3,4-d]pyrimidin-3-yl)-2-methoxyphenyl)-3-(5-(tert-butyl)isoxazol-3-yl)urea] | < 50 nM
CN1CCN([C@H]2CC[C@H](n3cc(-c4ccc(CC(=O)Nc5cc(C(C)(C)C)on5)cc4)c4c(N)ncnc43)CC2)CC1 [Example 124, 2-(4-(4-amino-7-((trans)-4-(4-methylpiperazin-1-yl)cyclohexyl)-7H-pyrrolo[2,3-d]pyrimidin-5-yl)phenyl)-N-(5-(tert-butyl)isoxazol-3-yl)acetamide] | 50 to 250 nM
[2H]c1c([2H])c([2H])c(Oc2ccc(-c3cn([C@H]4CC[C@H](N5CCN[C@@H](C)C5)CC4)c4ncnc(N)c34)cc2)c([2H])c1[2H] [Example 125, 7-((trans)-4-((S)-3-methylpiperazin-1-yl)cyclohexyl)-5-(4-pentadeuteriophenoxyphenyl)-7H-pyrrolo[2,3-d]pyrimidin-4-amine] | < 50 nM
C[C@H]1CN([C@H]2CC[C@H](n3cc(-c4ccc(Oc5ccccc5)cc4F)c4c(N)ncnc43)CC2)CCN1 [Example 126, 5-(2-fluoro-4-phenoxyphenyl)-7-((trans)-4-((S)-3-methylpiperazin-1-yl)cyclohexyl)-7H-pyrrolo[2,3-d]pyrimidin-4-amine] | < 50 nM
C[C@H]1CN([C@H]2CC[C@@H](n3nc(-c4ccc(Oc5ccccc5)cc4F)c4c(N)ncnc43)CC2)CCN1 [Example 128, 3-(2-fluoro-4-phenoxyphenyl)-1-((cis)-4-((S)-3-methylpiperazin-1-yl)cyclohexyl)-1H-pyrazolo[3,4-d]pyrimidin-4-amine] | 50 to 250 nM
C[C@H]1CN([C@H]2CC[C@H](n3cc(-c4ccc(NC(=O)Nc5cc(C(C)(C)C)on5)cc4)c4c(N)ncnc43)CC2)CCN1 [Example 129, 1-(4-(4-amino-7-((trans)-4-((S)-3-methylpiperazin-1-yl)cyclohexyl)-7H-pyrrolo[2,3-d]pyrimidin-5-yl)phenyl)-3-(5-(tert-butyl)isoxazol-3-yl)urea] | < 50 nM
C[C@H]1CN([C@H]2CC[C@@H](n3cc(-c4ccc(NC(=O)Nc5cc(C(C)(C)C)on5)cc4)c4c(N)ncnc43)CC2)CCN1 [Example 130, 1-(4-(4-amino-7-((cis)-4-((S)-3-methylpiperazin-1-yl)cyclohexyl)-7H-pyrrolo[2,3-d]pyrimidin-5-yl)phenyl)-3-(5-(tert-butyl)isoxazol-3-yl)urea] | 50 to 250 nM
COc1cc(-c2cn([C@H]3CO[C@H](C4CCN(C)CC4)OC3)c3ncnc(N)c23)ccc1Oc1ccccc1 [Example 131, 5-(3-methoxy-4-phenoxyphenyl)-7-((trans)-2-(1-methylpiperidin-4-yl)-1,3-dioxan-5-yl)-7H-pyrrolo[2,3-d]pyrimidin-4-amine] | 50 to 250 nM
CN1CCN(C2CCC(n3nc(-c4ccc(Oc5ccccc5)cc4F)c4c(N)ncnc43)C2)CC1 (stereo not shown) [Example 135] | 50 to 250 nM

Now from value to compound:

IC50 | SMILES
< 50 nM | COc1cc(-c2cn([C@H]3CO[C@@H](C4CCN(C)CC4)OC3)c3ncnc(N)c23)ccc1Oc1ccccc1 [Example 133, 5-(3-methoxy-4-phenoxyphenyl)-7-((cis)-2-(1-methylpiperidin-4-yl)-1,3-dioxan-5-yl)-7H-pyrrolo[2,3-d]pyrimidin-4-amine]
< 50 nM | COc1cc(-c2cn([C@H]3CC[C@H](N4CCN[C@@H](C)C4)CC3)c3ncnc(N)c23)ccc1Oc1ccccc1 [Example 134, 5-(3-Methoxy-4-phenoxyphenyl)-7-((trans)-4-((S)-3-methylpiperazin-1-yl)cyclohexyl)-7H-pyrrolo[2,3-d]pyrimidin-4-amine]
< 50 nM | Nc1ncnc2c1c(-c1ccc(Oc3ccccc3)cc1)nn2[C@H]1CC[C@H](n2cc(CO)cn2)CC1 [Example 138, (1-((trans)-4-(4-Amino-3-(4-phenoxyphenyl)-1H-pyrazolo[3,4-d]pyrimidin-1-yl)cyclohexyl)-1H-pyrazol-4-yl)methanol]
50 to 250 nM | Nc1ncnc2c1c(-c1ccc(NC(=O)CCc3ccccc3)cc1)cn2C1CCC(C2OCC(N)CO2)CC1 (stereo not shown) [Example 139, N-(4-(4-Amino-7-(4-(5-amino-1,3-dioxan-2-yl)cyclohexyl)-7H-pyrrolo[2,3-d]pyrimidin-5-yl)phenyl)-3-phenylpropanamide]
50 to 250 nM | Nc1ncnc2c1c(-c1ccc(Oc3ccccc3)cc1)cn2C1CCC2(CC1)CCN(CCCCO)CC2 [Example 140, 4-(9-(4-amino-5-(4-phenoxyphenyl)-7H-pyrrolo[2,3-d]pyrimidin-7-yl)-3-azaspiro[5.5]undecan-3-yl)butan-1-ol]
< 50 nM | Nc1ncnc2c1c(-c1ccc(Oc3ccccc3)cc1)cn2C1CCC2(CCNCC2)CC1 [Example 141, 5-(4-phenoxyphenyl)-7-(3-azaspiro[5.5]undecan-9-yl)-7H-pyrrolo[2,3-d]pyrimidin-4-amine]
< 50 nM | CN1CCC2(CCC(n3cc(-c4ccc(Oc5ccccc5)cc4)c4c(N)ncnc43)CC2)CC1 [Example 142, 7-(3-methyl-3-azaspiro[5.5]undecan-9-yl)-5-(4-phenoxyphenyl)-7H-pyrrolo[2,3-d]pyrimidin-4-amine]
50 to 250 nM | CN1CCOC(C2CCC(n3cc(-c4ccc(Oc5ccccc5)cc4)c4c(N)ncnc43)CC2)C1=O (stereo not shown) [Example 143, 2-(4-(4-Amino-5-(4-phenoxyphenyl)-7H-pyrrolo[2,3-d]pyrimidin-7-yl)cyclohexyl)-4-methylmorpholin-3-one]
< 50 nM | CN1CCOC(C2CCC(n3cc(-c4ccc(Oc5ccccc5)cc4)c4c(N)ncnc43)CC2)C1 (stereo not shown) [Example 144, 7-(4-(4-Methylmorpholin-2-yl)cyclohexyl)-5-(4-phenoxyphenyl)-7H-pyrrolo[2,3-d]pyrimidin-4-amine]
< 50 nM | CN1CCC([C@H]2OC[C@H](n3cc(-c4ccc(Oc5ccccc5)cc4)c4c(N)ncnc43)CO2)CC1 [Example 145, 7-((2r,5r)-2-(1-Methylpiperidin-4-yl)-1,3-dioxan-5-yl)-5-(4-phenoxyphenyl)-7H-pyrrolo[2,3-d]pyrimidin-4-amine]
